Consider one compound from patent publication US20210205638A1, “PARATHYROID HORMONE AND REGENERATION OF DEGENERATIVE DISCS DISEASE” (THE JOHNS HOPKINS UNIVERSITY, priority 2017, published 2021).

In one experiment the test system is PTH1R KO mice. The experiment is described as follows: iPTH in PTH1R KO and PTH1R+/+ mice: PPCT IVD volume. Type of experiment: in vivo, mouse. The protocol:
Mice carrying the PTH1R gene flanked by loxP sites (PTH1R^flox/flox) were mated with Noto^Cre mice to generate mice bearing Noto^Cre and a floxed PTH1R allele in their germline. These mice were backcrossed to homozygous floxed mice (Noto^Cre/+/PTH1R^flox/+::PTH1R^flox/flox) to generate mice with inactivation of both alleles in notochord derived cells (genotype Noto^+/+::PTH1R^flox/flox). […] The genotype of transgenic mice was determined by PCR analyses of genomic DNA isolated from mouse tails. […] The images were reconstructed and analyzed using the GPU-CT-Reconstruction software (applied by the BL13W1 experimental station) and the VG Studio Max 3D software (version 2.1, Volume Graphics GmbH, Germany) respectively. […] The 3D quantitative analysis of IVDs was performed with the commercially available Image Pro Analyzer 3D software (Version 7.0, Media Cybernetics, Inc., USA). The 3D structural parameters analyzed for the mean height and volume and thickness distribution of IVDs. The trabecular bone of L4 was segmented from the bone marrow and analyzed to determine the trabecular bone volume fraction (BV/TV), trabecular thickness (Tb. Th), trabecular number (Tb. N) and trabecular separation (Tb. Sp).

A further experiment has as its system NP tissues. The experiment is described as follows: Western blot of pSmad2 in NP tissue of aged mice. It is filed as in vivo, mouse. To be noted: NP tissues of 18-month-old mice. On the procedure: Western blot analyses were conducted on the protein lysates from in vitro cultured NP cells or NP tissues from mice at specific time points after PTH (1-34) treatment and human at different ages with lumbar disc degeneration. The protein extract was centrifuged, the concentration of supernatant evaluated by DC protein assay (Bio-Rad Laboratories), and then separated by SDS-PAGE and blotted on a polyvinylidene fluoride membrane (Bio-Rad Laboratories). Following incubation in specific antibodies, we detected proteins using an enhanced chemiluminescence kit (Amersham Biosciences). We used specific antibodies recognizing rabbit CTGF (CCN2) (Abcam, 1:1000), Aggrecan (ACAN) (Abcan, 1:1000), p-Smad2 (Cell Signaling Technology Inc., 1:1000), Smad2 (Cell Signaling Technology Inc., 1:1000), GAPDH (Cell Signaling Technology Inc., 1:1000), CREB (Abcam, 1:2500), pCREB (Abcam, 1:2500), PTH1R PRB-635P (Covance, 1:100), PTH1R PRB-640P (Covance, 1:500) and goat integrin β6 (Santa Cruz, 1:500) to examine the protein concentrations in the lysates. Co-immunoprecipitation analyses were conducted on the nuclear and cytoplasmic protein extraction using NE-PER Nuclear and Cytoplasmic Extraction Kit (Pierce Thermo Scientific, 78833) from in vitro cultured NP cells treated with PTH (1-34) or vehicle.

The test system of another experiment is NP cells. Nature of the experiment: cAMP assay in NP cells (enzyme immunoassay). Type of experiment: cell-based, mouse. To be noted: PTH (1-34) 100 nmol. The protocol:
Green fluorescent protein (GFP) labeled NP cells of notochordal origin were isolated from 15-day old Noto^Cre/+::ROSA26-lacZ^flox/flox male mice as previously described. The NP cells from 15-day old PTH1R^+/+ and PTH1R^−/−, IFT88^+/+ and IFT88^−/− male mice. Briefly, the cells were isolated from the NP region of IVDs in the spinal column from mid thoracic to lower lumbar region and digested initially with TrypLE Express (Gibco) for 30 minutes on shaker, followed by 0.25 mg/ml Collagense-P (Roche) for another […] at 37° C. The digested cells were washed twice with PBS, and cultured in α-MEM (Gibco) supplemented with 10% fetal calf serum (Atlanta Biologicals), and 1% penicillin—streptomycin (Mediatech) to 80-90% confluence at 37° C., 5% CO2 and 5% O2.
For cAMP assays, confluent cells were grown in 35-mm six-well plates starved overnight by incubation in serum-free α-MEM at 37° C. The cells were then treated with 100 nM human of human PTH (1-34; Bachem Calif., Inc.) for 1 h. Cellular cAMP was extracted and the concentration measured with the Biotrak enzyme immunoassay system (GE Healthare, Inc., Princeton, HJ). We determined the concentration of total and active TGF-β in the NP tissue using the ELISA Development Kit (R&D Systems) according to the manufacturer's instructions.
A general note: cAMP levels reflect the balance of adenylyl cyclase and phosphodiesterase activity.

As to `CC[C@H](C)[C@H](NC(=O)[C@H](CCC(=O)O)NC(=O)[C@H](CO)NC(=O)[C@@H](NC(=O)[C@@H](N)CO)C(C)C)C(=O)N[C@@H](CCC(N)=O)C(=O)N[C@@H](CC(C)C)C(=O)N[C@@H](CCSC)C(=O)N[C@@H](Cc1cnc[nH]1)C(=O)N[C@@H](CC(N)=O)C(=O)N[C@@H](CC(C)C)C(=O)NCC(=O)N[C@@H](CCCCN)C(=O)N[C@@H](Cc1cnc[nH]1)C(=O)N[C@@H](CC(C)C)C(=O)N[C@@H](CC(N)=O)C(=O)N[C@@H](CO)C(=O)N[C@@H](CCSC)C(=O)N[C@@H](CCC(=O)O)C(=O)N[C@@H](CCCN=C(N)N)C(=O)N[C@H](C(=O)N[C@@H](CCC(=O)O)C(=O)N[C@@H](Cc1c[nH]c2ccccc12)C(=O)N[C@@H](CC(C)C)C(=O)N[C@@H](CCCN=C(N)N)C(=O)N[C@@H](CCCCN)C(=O)N[C@@H](CCCCN)C(=O)N[C@@H](CC(C)C)C(=O)N[C@@H](CCC(N)=O)C(=O)N[C@@H](CC(=O)O)C(=O)N[C@H](C(=O)N[C@@H](Cc1cnc[nH]1)C(=O)N[C@@H](CC(N)=O)C(=O)N[C@@H](Cc1ccccc1)C(=O)O)C(C)C)C(C)C` [PTH (1-34), teriparatide], the “increase of IVD volume by iPTH” value in the experiment on PTH1R KO mice (12-month-old PTH1R KO mice) is “abolished”. Also, the IVD volume result in the experiment with PTH1R KO mice (12-month-old PTH1R+/+ mice) was “Increase”. Moreover, in the experiment with NP tissues, the “pSmad2 (Western blot)” value is “increased”. In the experiment with NP cells, the “time at which cAMP level in NP cells peaked” value was 30 min.
